BigSolDB 2.1

CC(C)[C@@H](C)[C@@H](O)[C@H](O)[C@@H](C)[C@H]1CC[C@H]2[C@@H]3COC(=O)[C@H]4C[C@H](O)[C@H](O)C[C@]4(C)[C@H]3CC[C@]12C
solubility (mole fraction)
Conditions | 283.15 K | 288.15 K | 293.15 K | 298.15 K | 303.15 K | 308.15 K | 313.15 K | 318.15 K | 323.15 K
in acetone | 0.00144 | 0.00176 | 0.00207 | 0.0024 | 0.00273 | 0.00303 | 0.00334 | 0.00365 | 0.00405
in acetonitrile | 0.000162 | 0.000206 | 0.000258 | 0.000322 | 0.000399 | 0.000491 | 0.0006 | 0.000728 | 0.000879
in ethanol | 0.00219 | 0.00241 | 0.00296 | 0.0032 | 0.00356 | 0.00409 | 0.00476 | 0.00551 | 0.00634
in isopropanol | 0.00136 | 0.00169 | 0.00209 | 0.00256 | 0.00312 | 0.00396 | 0.00464 | 0.00564 | 0.00667
